Values quoted from earlier work in US4535248A, “Method for detecting aflatoxin in almonds” (priority 1984, dated 1985).

Test system: rats
Conditions: for estimated effective dose, hepatocarcinogens (for comparison): similar estimates for other hepatocarcinogens

Structure (SMILES) | effective dose for the induction of liver tumors (rat, in vivo) | estimated effective dose, hepatocarcinogens (for comparison)
COc1cc2c(c3oc(=O)c4c(c13)CCC4=O)[C@@H]1C=CO[C@@H]1O2 [B1] | approximately 10 mg per day | –
CN(C)c1ccc(N=Nc2ccccc2)cc1 [butteryellow] | – | 9,000 mg/day
CN(C)N=O [dimethylnitrosamine] | – | 750 mg/day
